Measured values: patent US12054483B2, “Small molecule inhibitors of DYRK/CLK and uses thereof” (Arizona Board of Regents on Behalf of the University of …, priority 2018, dated 2024)

Target: DYRK1A (Homo sapiens, UniProt Q13627)
Assay: Affinity testing of compounds with DYRK1A (KD)
Assay type: binding
Details: DYRK1A affinity key classes

| Compound | Kd |
| --- | --- |
| Cc1nc2ccc(-c3ccncc3)nc2n1-c1cnc2[nH]ccc2c1 [Compound 137, 2-methyl-5-(pyridin-4-yl)-3-(1H-pyrrolo[2,3-b]pyridin-5-yl)-3H-imidazo[4,5-b]pyridine] | 0.5 to 100 nM |
| CC(=O)N1C[C@@H]2[C@H](C1)[C@H]2n1c(C)nc2ccc(-c3ccncc3)nc21 [Compound 38, 1-((1R,5S,6s)-6-(2-methyl-5-(pyridin-4-yl)-3H-imidazo[4,5-b]pyridin-3-yl)-3-azabicyclo[3.1.0]hexan-3-yl)ethan-1-one] | 0.5 to 100 nM |
| CC(=O)N1CCN(Cc2ccc(-n3c(C)nc4ccc(-c5ccncc5)nc43)cc2)CC1 [Compound 116, 1-(4-(4-(2-methyl-5-(pyridin-4-yl)-3H-imidazo[4,5-b]pyridin-3-yl)benzyl)piperazin-1-yl)ethan-1-one] | 0.5 to 100 nM |
| O=C(O)c1ccc(-n2cnc3c(F)cc(-c4ccncc4)cc32)cc1 [Compound 17, 4-(4-fluoro-6-(pyridin-4-yl)-1H-benzo[d]imidazol-1-yl)benzoic acid] | 101 to 500 nM |
| Cc1nc2ccc(-c3ccncc3)nc2n1-c1ncc(CN2CCCC(F)(F)C2)s1 [Compound 62, 5-((3,3-difluoropiperidin-1-yl)methyl)-2-(2-methyl-5-(pyridin-4-yl)-3H-imidazo[4,5-b]pyridin-3-yl)thiazole] | 0.5 to 100 nM |
| Cc1nc2ccc(-c3ccncc3)nc2n1-c1ccc2[nH]c(C(F)(F)F)nc2c1 [Compound 34, 2-methyl-5-(pyridin-4-yl)-3-(2-(trifluoromethyl)-1H-benzo[d]imidazol-5-yl)-3H-imidazo[4,5-b]pyridine] | 0.5 to 100 nM |
| Cc1cc(-c2ccc3ncc(-c4ccc(CN5CCCCC5)cc4)n3n2)ccn1 [Compound 92, 6-(2-methylpyridin-4-yl)-3-(4-(piperidin-1-ylmethyl)phenyl)imidazo[1,2-b]pyridazine] | 101 to 500 nM |
| Cc1cc(-c2ccc3ncc(-c4ccc(CN5CCC(C)(C)CC5)cc4)n3n2)ccn1 [Compound 93, 3-(4-((4,4-dimethylpiperidin-1-yl)methyl)phenyl)-6-(2-methylpyridin-4-yl)imidazo[1,2-b]pyridazine] | 101 to 500 nM |
| CC(=O)N1CCN(c2ccc(-n3c(C)nc4ccc(-c5ccnc(N)c5)nc43)cc2F)CC1 [Compound 184] | 0.5 to 100 nM |
| Cc1nc2ccc(-c3ccncc3)nc2n1-c1ccc(CN2C[C@@H](C)N(C)[C@@H](C)C2)cc1 [Compound 119, 2-methyl-5-(pyridin-4-yl)-3-(4-(((3R,5S)-3,4,5-trimethylpiperazin-1-yl)methyl)phenyl)-3H-imidazo[4,5-b]pyridine] | 0.5 to 100 nM |

Further lines, results first:

| Kd | Compound |
| --- | --- |
| 0.5 to 100 nM | Cc1nc2cc(-c3ccnc(N)c3)cnc2[nH]1 [Compound 71, 4-(2-methyl-3H-imidazo[4,5-b]pyridin-6-yl)pyridin-2-amine] |
| 0.5 to 100 nM | Cc1nc2ccc(-c3ccnc(N)c3)nc2n1-c1ccc2[nH]cnc2c1 [Compound 49, 4-(3-(1H-benzo[d]imidazol-5-yl)-2-methyl-3H-imidazo[4,5-b]pyridin-5-yl)pyridin-2-amine] |
| 0.5 to 100 nM | Cc1nc2ccc(-c3ccnc(N)c3)nc2n1-c1ccc(N2C[C@@H](C)O[C@@H](C)C2)c(F)c1 [Compound 181, 4-(3-(4-((2S,6R)-2,6-dimethylmorpholino)-3-fluorophenyl)-2-methyl-3H-imidazo[4,5-b]pyridin-5-yl)pyridin-2-amine] |
| 0.5 to 100 nM | Cc1cc(-c2ccc3ncc(-c4ccc(CN5CCN[C@H](C)C5)cc4)n3n2)ccn1 [Compound 94, (R)-3-(4-((3-methylpiperazin-1-yl)methyl)phenyl)-6-(2-methylpyridin-4-yl)imidazo[1,2-b]pyridazine] |
| 0.5 to 100 nM | Cc1nc2ccc(-c3ccncc3)nc2n1-c1ccc(CN2CCOC(C)(C)C2)cc1 [Compound 120, 2,2-dimethyl-4-(4-(2-methyl-5-(pyridin-4-yl)-3H-imidazo[4,5-b]pyridin-3-yl)benzyl)morpholine] |
| 501 to 10000 nM | Cc1nc2cccnc2n1-c1ccc(CN2CCOCC2)cc1 [Compound 177, 4-(4-(2-methyl-3H-imidazo[4,5-b]pyridin-3-yl)benzyl)morpholine] |
